Experimental data reported in US8414879B2, “Superporous hydrogel with cells encapsulated therein and method for producing the same” (The Board of Trustees of the University of Illinois, priority 2008, dated 2013).
Where two headings read alike, the source gives them in different places.

Key:
[1] = system: cells
Description: Effect of Hydrogel Precursor Solution Components on Cell Viability. Cells (10^5 cells/mL) were plated on 48-well plates and were allowed to adhere to the plates overnight. […] The pH of one solution was adjusted to 5 (using […]) and that of the other solution was adjusted to 8 (using 1 M NaOH). […] The treatment groups were compared to untreated controls where cells were incubated with media. […] To this, 30 μL of MTS test reagent was added. Cells were then incubated with MTS test reagent for 3 hours and absorbance recorded at 490 nm on a UV plate reader.
(§1) Specifically, cells were treated with 0.05% to 1.5% (w/v) APS at pH 5 for 10 minutes or 0.05% to 1.5% (w/v) APS at pH 8 for 24, 48, or 72 hours and compared to controls in a MTS test and LIVE/DEAD cell assay. Similarly, cells were treated with 0.05% to 0.90% (w/v) TEMED at pH 5 for 10 minutes or 0.05% to 0.90% (w/v) TEMED at pH 8 for 24, 48, or 72 hours and compared to controls in a MTS test and LIVE/DEAD cell assay. Likewise, cells were treated with 0.05% to 1.0% (w/v) F-127 at pH 5 for 10 minutes or 0.05% to 1.0% (w/v) F-127 at pH 8 for 24, 48, or 72 hours and compared to controls in a MTS test and LIVE/DEAD cell assay.
(§2) Treatment groups were compared to untreated controls in both a MTS test and LIVE/DEAD cell assay.
(§3) The suspension in the test tube was allowed to stand for 5 minutes. Cells were treated with the supernatant for 10 minutes or 24, 48, or 72 hours. The saturated solution was aspirated from the wells, cells were washed and analyzed with the MTS test and LIVE/DEAD cell assay.
(§4) The effects of precursor solution constituents on cell viability were analyzed over a 72 hour period. The experiments were designed based on the conditions that the cells would be exposed to during the fabrication of superporous hydrogels; i.e., exposure to each constituent of SPH individually at pH of 5 for 10 minutes and thereafter for 24, 48 and 72 hours at pH of 8. […] 96 AQUEOUS ONE® solution Cell Proliferation Assay (MTS) and LIVE/DEAD cell assay were used to determine the effect of each of the constituents on cell viability.

[2] = system: gingival fibroblasts; conditions: cited from earlier work
[3] = system: cells; assay: Effect of precursor solution components, LIVE/DEAD cell assay
Description: LIVE/DEAD cell assay was used to visualize live and dead cells (Gaugain, et al. (1978) Biochemistry 17:5071-8; Gaugain, et al. (1978) Biochemistry 17:5078-88). […] To the resuspended cells was added 100 μL of calcein-AM/ethidium homodimer stain (stock solutions of the dyes were prepared as per manufacturer's protocol-Molecular Probes). Cells were incubated for 30 minutes and images were captured of both treatment and control groups using a fluorescence microscope.
as §1, §2, §3, §4

[4] = system: cells; assay: Effect of physical foaming (nitrogen gas/compressed air) on cell viability; type: cell-based
Description: Effect of Physical Foaming on Cell Viability. Cells (10^5 cells/mL) were suspended in media and treated with the precursor solution used in fabrication of superporous hydrogels. […] The precursor solution was then exposed to UV for 3.5 minutes. In one treatment group nitrogen gas/compressed air was applied to the top of the cells at 200 psi for 2 minutes at a flow rate of 4000 mL/minute. In a second treatment group, nitrogen gas/compressed air was applied from below the cells suspended in the Buchner funnel at 200 psi for 2 minutes at a flow rate of 4000 mL/minute. Thereafter, each of the groups was exposed to UV at 5 mW/cm^2 for 3 minutes, washed twice with DPBS containing Ca and Mg, resuspended in fresh media and transferred to a 48-well plate. Cells were incubated for 24, 48 and 72 hours and cell viability was determined via the MTS test and LIVE/DEAD cell assay.

[5] = system: cells; conditions: cells in media at pH 5, 10 minutes, MTS and LIVE/DEAD
Description: A third group was the untreated controls. At the end of 10 minutes, the cells were washed, resuspended in fresh media, and analyzed with the MTS test reagent and LIVE/DEAD cell assay.

## O=C(O)CC(O)(CC(=O)O)C(=O)O [citric acid]
[1]; 10 min, 2.4 % (w/v), pH 5
  viable cells: about 99.7±11.6%
[1]; 24 h, 2.4 % (w/v), pH 8
  viable cells: 28.95±5.70%
[1]; 48 h, 2.4 % (w/v), pH 8
  viable cells: 15.81±1.80%
[1]; 72 h, 2.4 % (w/v), pH 8
  viable cells: 16.20±6.81%
[2]; 47.6 mM (pH 2.3) in water, within three minutes
  cell death: complete cell death
[2]; medium containing 11.9 mM
  inhibition of attachment and spreading of fibroblasts on Type I collagen: 22%
  inhibition of attachment and spreading of fibroblasts on culture plates: 58%
[2]; within three hours of incubation
  inhibition of protein synthesis: 0.28%

## N.N.O=S(=O)(O)OOS(=O)(=O)O [APS, Ammonium persulphate]
[1]; 0.05% APS, MTS
  cell viability: 60%
[1]; 0.70% APS, 10 minutes, pH 5, MTS
  viable cells: 21.25±9.6%
[1]; 0.70% APS, 24 hours, pH 8, MTS
  viable cells: 16.83±4.8%
[1]; 0.70% APS, 48 hours, pH 8, MTS
  viable cells: 14.8±6.8%
[1]; 0.70% APS, 72 hours, pH 8, MTS
  viable cells: 11.63±0.3%
[1]; APS 0.05% to 1.5%, 10 minutes, 24, 48 and 72 hours
  toxicity: toxic to cells at all concentrations tested
[3]; 0.05% APS
  live/dead cells: the cells were dead
[3]; APS, end of each incubation period
  live/dead cells: dead cells at the end of each of the incubation periods

## CN(C)CCN(C)C [TEMED, N,N,N′,N′-tetramethylethylenediamine]
[1]; 0.90% TEMED, 10 minutes, pH 5, MTS
  viable cells: 108.59±1.23%
[1]; 0.90% TEMED, 24 hours, pH 8, MTS
  viable cells: 30.63±5.51%
[1]; 0.90% TEMED, 48 hours, pH 8, MTS
  viable cells: 20.41±6.92%
[1]; 0.90% TEMED, 72 hours, pH 8, MTS
  viable cells: 18.53±12.82%
[1]; TEMED 0.05% to 0.90%, 10 minutes
  toxicity: no significant toxicity
[1]; TEMED all concentrations, 24, 48 and 72 hours
  toxicity: toxicity observed at all concentrations
[3]; TEMED all concentrations, 10 minutes
  live/dead cells: cells were alive
[3]; TEMED, longer time periods
  live/dead cells: they were dead

## N#N [nitrogen gas under pressure]
[4]; cells washed and plated for 24, 48 and 72 hours after foaming
  cell death over 72 hours: cell death observed over 72 hours
[4]; determined immediately after treating cells
  cell death compared to untreated controls: approximately 20%

## [Na+].[OH-] [sodium hydroxide]
[5]
  cell death on sudden pH change from acidic to alkaline: a significant amount of cell death
